Data as given in publication PMC4603778, “Encoded Library Synthesis Using Chemical Ligation and the Discovery of sEH Inhibitors from a 334-Million Member Library” (Scientific Reports, 2015).

Molecular target: T1, soluble epoxide hydrolase (sEH) (Homo sapiens, UniProt P34913)
T1 construct: gene EPHX2; His-tagged sEH protein (used in the selection)
T1 sequence (P34913 1-555): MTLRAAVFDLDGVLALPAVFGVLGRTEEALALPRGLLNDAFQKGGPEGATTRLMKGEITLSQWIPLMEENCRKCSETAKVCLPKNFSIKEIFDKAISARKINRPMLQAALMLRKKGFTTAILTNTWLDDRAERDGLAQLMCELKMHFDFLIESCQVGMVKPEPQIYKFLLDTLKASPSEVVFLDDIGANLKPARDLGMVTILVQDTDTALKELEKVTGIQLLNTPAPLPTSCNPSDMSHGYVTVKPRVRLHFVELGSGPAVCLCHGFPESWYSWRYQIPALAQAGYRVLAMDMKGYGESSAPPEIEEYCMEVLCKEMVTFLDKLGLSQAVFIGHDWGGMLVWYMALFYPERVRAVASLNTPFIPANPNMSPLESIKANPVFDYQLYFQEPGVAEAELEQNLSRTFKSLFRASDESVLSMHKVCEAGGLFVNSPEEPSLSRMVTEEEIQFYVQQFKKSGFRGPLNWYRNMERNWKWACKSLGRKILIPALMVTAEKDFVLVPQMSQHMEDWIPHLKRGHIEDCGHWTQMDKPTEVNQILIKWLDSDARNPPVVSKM
Assay: biochemical sEH inhibition assay of off-DNA compound (methyl in place of DNA linker); building-block combination enriched in affinity selection

With CN(CCn1cccn1)C(=O)c1ccc(-c2cccc(C(=O)NC3CCCCC3)c2)nc1 [compound 12] as the compound, how does the IC50 read?
The IC50 was 2 nM.
